System: patients with acute ischemic stroke
Test: multicenter, randomized, double-blind, parallel clinical trial in acute ischemic stroke
Type: in vivo, human
Details: for increase in percentage of patients with mRS 0-1 compared to the saline group: non-thrombolytic group, TBN 1400 mg iv twice a day for 7 days
Description: The present invention adopts a multicenter, randomized, double-blind, parallel trial clinical research design. The patients with acute ischemic stroke included in the clinical trial-center as subjects (all signed informed consent forms) were divided into non-thrombolytic group and thrombolytic group. The non-thrombolytic group consists of the saline group and the TBN group. The thrombolytic group consists of the t-PA group and the combination group of TBN+t-PA.
Subjects of the tests: Patients diagnosed with acute ischemic stroke were selected by clinical trial centers based on the diagnostic criteria of “Chinese Guidelines for the Diagnosis and Treatment of Acute Ischemic Stroke (2018)”.
Administration method: TBN (1400 mg) is dissolved in a sodium chloride injection bag (specification: 100 mL) and administered intravenously for 30 minutes. Dose of t-PA: 0.9 mg/Kg/dose; usage: added to physiological saline, 10% of the dose is administered via injected intravenous injection immediately within 1-2 minutes, and the remaining 90% is administered via intravenous drop infusion within 60 minutes. t-PA is administered only once on the first day of acute ischemic stroke. The medication schedule of TBN: D1-D7 administered twice a day, with an interval of 12 hours, for 7 consecutive days.

With `Cc1nc(C)c(/C=[N+](\[O-])C(C)(C)C)nc1C` [TBN, cis-2-methyl-N-[(3,5,6-trimethylpyrazin-2-)methylene]2-propamine oxide] the safety and tolerability (clinical trial patients) was “good safety and tolerability”, the “increase in percentage of patients with mRS 0-1 compared to the saline group” value (30th day) was 6.6 percentage points and the “increase in percentage of patients with mRS 0-1 compared to the saline group” value (90th day) was 3.3 percentage points.
